Experiment [1] relates to genotype 1a (H77) stable HCV replicon in Huh-7-derived cells. The experiment can be described thus: Stable subgenomic HCV replicon EC50, genotype 1a (Renilla luciferase). It counts as cell-based, hepatitis C virus. To be noted: Hepatitis C virus, stable replicon genotype 1a, 72 h, read-out: EC50 1A RLUC. In short, it runs like this:
(§1)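 Compounds, three-fold diluted, were applied to Huh-7-derived cells harbouring luciferase replicons (genotype 1a H77, 1b Con1, 2a JFH-1, 4a ED43, with strain-specific adaptive mutations). Seventy-two hours later, intracellular replication was gauged by Renilla luciferase activity and EC50 derived by regression.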
In general terms: Replicon systems follow genome replication, usually without infectious particles.

The subject of experiment [2] is genotype 2a (JFH-1) stable HCV replicon in Huh-7-derived cells. The experiment can be described thus: Stable subgenomic HCV replicon EC50, genotype 2a (Renilla luciferase). It counts as cell-based, hepatitis C virus. To be noted: Hepatitis C virus, stable replicon genotype 2a, 72 h, read-out: EC50 2A RLUC. The method in brief: as §1
The test system of experiment [3] is genotype 1b (Con1) stable HCV replicon in Huh-7-derived cells. The experiment in a line: Stable subgenomic HCV replicon EC50, genotype 1b (Renilla luciferase). To be noted: Hepatitis C virus, stable replicon genotype 1b, 72 h, read-out: EC50 1B RLUC. The class given is cell-based, hepatitis C virus. The method in brief: as §1
Experiment [4] deals with genotype 4a (ED43) stable HCV replicon in Huh-7-derived cells. The experiment in a line: Stable subgenomic HCV replicon EC50, genotype 4a (Renilla luciferase). To be noted: Hepatitis C virus, 72 h, read-out: EC50 4A RLUC. It counts as cell-based, hepatitis C virus. The method in brief:
as §1

Experiment [5] has as its system genotype 3a (S52) stable HCV replicon in Huh-7-derived cells. The experiment can be described thus: Stable subgenomic HCV replicon EC50, genotype 3a (Renilla luciferase). The class given is cell-based, hepatitis C virus. To be noted: Hepatitis C virus, 72 h, read-out: EC50 3A RLUC.
In experiment [6] the target is HCV NS3 protease domain genotype 3a (Hepatitis C virus genotype 3a, UniProt Q81258). The experiment in a line: Ki determination, NS3 protease genotype 3a (fluorogenic depsipeptide substrate). It counts as biochemical. To be noted: 200 pM enzyme, NS4A peptide. The source says: Purified NS3 protease domain (amino acids 1-181) of the genotype 1b and 3a virus were generated as above. The internally quenched fluorogenic depsipeptide substrate Ac-DED(Edans)-EEAbuΨ[COO]ASK(Dabcyl)-NH2 and a synthetic peptide containing the hydrophobic core residues of the NS4A protein cofactor ([…]; NS4A peptide) were obtained from Anaspec, Inc. (San Jose, Calif.). Other chemicals and biochemicals were of reagent grade or better and were purchased from standard suppliers.
Reactions were run at room temperature in buffer consisting of 50 mM HEPES, 40% glycerol, 0.05% Triton X-100, 10 mM DTT, and 10% DMSO. The final assay solutions contained 50 pM NS3 genotype 1 b protease or 200 pM genotype 3a protease, 20 μM NS4A peptide, and 4 μM substrate (genotype 1b) or 2 μM substrate (genotype 3a). Inhibitor concentrations varied from 100 nM to 5 pM in 3-fold dilutions, and no-inhibitor controls were included.
Compound dilutions were made in DMSO at 20× final concentration. Reaction mixtures were prepared in 96-well assay plates. A solution of enzyme and NS4A peptide in assay buffer (25 μL volume with both reagents at 4× final concentration) was mixed with 45 μL assay buffer and 5 μL of either inhibitor or DMSO, and pre-incubated at room temperature for 1 hour. The reaction was started by addition of 25 μL substrate solution at 4× final concentration. Plates were mixed vigorously for 5-10 seconds and reactions were allowed to proceed for 90 minutes, fluorescence was measured every 30 s between 90 and 120 minutes reaction time using a Tecan InfiniTe M1000 or PerkinElmer Envision multimode plate reader with an excitation wavelength of 340 nm and an emission wavelength of 490 nm.
Rates were calculated from the progress curves at steady state, in the time frame of 90-120 minutes after addition of substrate. To determine the Ki, rates were plotted as a function of inhibitor concentration, and the data were fit with equation 1 (Morrison, J. F., Biochimica et Biophysica Acta 1969, 185, 269-286) to calculate Ki^app using GraphPad Prism 5. Active fraction of enzyme was determined by active site titration with known potent inhibitors. Ki was calculated from Ki^app/(1+[[S]/Km]).

Experiment [7] deals with genotype 1a (H77) wild type transient HCV replicon in Huh-7-derived cells. The experiment in a line: Transient-transfected HCV replicon EC50, genotype 1a wild type. The class given is cell-based, hepatitis C virus. To be noted: Hepatitis C virus, 72 h, read-out: EC50 1A WT.
The test system of experiment [8] is genotype 3a (S52) wild type transient HCV replicon in Huh-7-derived cells. The experiment in a line: Transient-transfected HCV replicon EC50, genotype 3a wild type. The class given is cell-based, hepatitis C virus. Conditions: Hepatitis C virus, 72 h, read-out: EC50 3A WT.
The test system of experiment [9] is genotype 1b (Con1) wild type transient HCV replicon in Huh-7-derived cells. The experiment can be described thus: Transient-transfected HCV replicon EC50, genotype 1b wild type. It counts as cell-based, hepatitis C virus. To be noted: Hepatitis C virus, 72 h, read-out: EC50 1B WT.
Experiment [10] deals with genotype 1b NS3/4a protease inhibitor resistant variant D168A transient HCV replicon in Huh-7-derived cells. The experiment in a line: Transient-transfected HCV replicon EC50, genotype 1b D168A. The class given is cell-based, hepatitis C virus. Conditions: Hepatitis C virus, 72 h, read-out: EC50 1B D168A, transient-transfected replicon genotype 1b D168A resistant variant, 72 h.

In experiment [11] the test system is genotype 1a NS3/4a protease inhibitor resistant variant R155K transient HCV replicon in Huh-7-derived cells. The experiment can be described thus: Transient-transfected HCV replicon EC50, genotype 1a R155K. The class given is cell-based, hepatitis C virus. Conditions: Hepatitis C virus, 72 h, read-out: EC50 1A R155K, transient-transfected replicon genotype 1a R155K resistant variant, 72 h.

Setting [12] is: transient-transfected replicon genotype 1a wild type.
Setting [13] is: transient-transfected replicon genotype 3a wild type.
The mark [14] stands for this setting: transient-transfected replicon genotype 1b wild type.

Where two headings read alike, the source gives them in different places.

Sequence of HCV NS3 protease domain genotype 3a (Q81258 whole entry, looked up, the tested form may be a part): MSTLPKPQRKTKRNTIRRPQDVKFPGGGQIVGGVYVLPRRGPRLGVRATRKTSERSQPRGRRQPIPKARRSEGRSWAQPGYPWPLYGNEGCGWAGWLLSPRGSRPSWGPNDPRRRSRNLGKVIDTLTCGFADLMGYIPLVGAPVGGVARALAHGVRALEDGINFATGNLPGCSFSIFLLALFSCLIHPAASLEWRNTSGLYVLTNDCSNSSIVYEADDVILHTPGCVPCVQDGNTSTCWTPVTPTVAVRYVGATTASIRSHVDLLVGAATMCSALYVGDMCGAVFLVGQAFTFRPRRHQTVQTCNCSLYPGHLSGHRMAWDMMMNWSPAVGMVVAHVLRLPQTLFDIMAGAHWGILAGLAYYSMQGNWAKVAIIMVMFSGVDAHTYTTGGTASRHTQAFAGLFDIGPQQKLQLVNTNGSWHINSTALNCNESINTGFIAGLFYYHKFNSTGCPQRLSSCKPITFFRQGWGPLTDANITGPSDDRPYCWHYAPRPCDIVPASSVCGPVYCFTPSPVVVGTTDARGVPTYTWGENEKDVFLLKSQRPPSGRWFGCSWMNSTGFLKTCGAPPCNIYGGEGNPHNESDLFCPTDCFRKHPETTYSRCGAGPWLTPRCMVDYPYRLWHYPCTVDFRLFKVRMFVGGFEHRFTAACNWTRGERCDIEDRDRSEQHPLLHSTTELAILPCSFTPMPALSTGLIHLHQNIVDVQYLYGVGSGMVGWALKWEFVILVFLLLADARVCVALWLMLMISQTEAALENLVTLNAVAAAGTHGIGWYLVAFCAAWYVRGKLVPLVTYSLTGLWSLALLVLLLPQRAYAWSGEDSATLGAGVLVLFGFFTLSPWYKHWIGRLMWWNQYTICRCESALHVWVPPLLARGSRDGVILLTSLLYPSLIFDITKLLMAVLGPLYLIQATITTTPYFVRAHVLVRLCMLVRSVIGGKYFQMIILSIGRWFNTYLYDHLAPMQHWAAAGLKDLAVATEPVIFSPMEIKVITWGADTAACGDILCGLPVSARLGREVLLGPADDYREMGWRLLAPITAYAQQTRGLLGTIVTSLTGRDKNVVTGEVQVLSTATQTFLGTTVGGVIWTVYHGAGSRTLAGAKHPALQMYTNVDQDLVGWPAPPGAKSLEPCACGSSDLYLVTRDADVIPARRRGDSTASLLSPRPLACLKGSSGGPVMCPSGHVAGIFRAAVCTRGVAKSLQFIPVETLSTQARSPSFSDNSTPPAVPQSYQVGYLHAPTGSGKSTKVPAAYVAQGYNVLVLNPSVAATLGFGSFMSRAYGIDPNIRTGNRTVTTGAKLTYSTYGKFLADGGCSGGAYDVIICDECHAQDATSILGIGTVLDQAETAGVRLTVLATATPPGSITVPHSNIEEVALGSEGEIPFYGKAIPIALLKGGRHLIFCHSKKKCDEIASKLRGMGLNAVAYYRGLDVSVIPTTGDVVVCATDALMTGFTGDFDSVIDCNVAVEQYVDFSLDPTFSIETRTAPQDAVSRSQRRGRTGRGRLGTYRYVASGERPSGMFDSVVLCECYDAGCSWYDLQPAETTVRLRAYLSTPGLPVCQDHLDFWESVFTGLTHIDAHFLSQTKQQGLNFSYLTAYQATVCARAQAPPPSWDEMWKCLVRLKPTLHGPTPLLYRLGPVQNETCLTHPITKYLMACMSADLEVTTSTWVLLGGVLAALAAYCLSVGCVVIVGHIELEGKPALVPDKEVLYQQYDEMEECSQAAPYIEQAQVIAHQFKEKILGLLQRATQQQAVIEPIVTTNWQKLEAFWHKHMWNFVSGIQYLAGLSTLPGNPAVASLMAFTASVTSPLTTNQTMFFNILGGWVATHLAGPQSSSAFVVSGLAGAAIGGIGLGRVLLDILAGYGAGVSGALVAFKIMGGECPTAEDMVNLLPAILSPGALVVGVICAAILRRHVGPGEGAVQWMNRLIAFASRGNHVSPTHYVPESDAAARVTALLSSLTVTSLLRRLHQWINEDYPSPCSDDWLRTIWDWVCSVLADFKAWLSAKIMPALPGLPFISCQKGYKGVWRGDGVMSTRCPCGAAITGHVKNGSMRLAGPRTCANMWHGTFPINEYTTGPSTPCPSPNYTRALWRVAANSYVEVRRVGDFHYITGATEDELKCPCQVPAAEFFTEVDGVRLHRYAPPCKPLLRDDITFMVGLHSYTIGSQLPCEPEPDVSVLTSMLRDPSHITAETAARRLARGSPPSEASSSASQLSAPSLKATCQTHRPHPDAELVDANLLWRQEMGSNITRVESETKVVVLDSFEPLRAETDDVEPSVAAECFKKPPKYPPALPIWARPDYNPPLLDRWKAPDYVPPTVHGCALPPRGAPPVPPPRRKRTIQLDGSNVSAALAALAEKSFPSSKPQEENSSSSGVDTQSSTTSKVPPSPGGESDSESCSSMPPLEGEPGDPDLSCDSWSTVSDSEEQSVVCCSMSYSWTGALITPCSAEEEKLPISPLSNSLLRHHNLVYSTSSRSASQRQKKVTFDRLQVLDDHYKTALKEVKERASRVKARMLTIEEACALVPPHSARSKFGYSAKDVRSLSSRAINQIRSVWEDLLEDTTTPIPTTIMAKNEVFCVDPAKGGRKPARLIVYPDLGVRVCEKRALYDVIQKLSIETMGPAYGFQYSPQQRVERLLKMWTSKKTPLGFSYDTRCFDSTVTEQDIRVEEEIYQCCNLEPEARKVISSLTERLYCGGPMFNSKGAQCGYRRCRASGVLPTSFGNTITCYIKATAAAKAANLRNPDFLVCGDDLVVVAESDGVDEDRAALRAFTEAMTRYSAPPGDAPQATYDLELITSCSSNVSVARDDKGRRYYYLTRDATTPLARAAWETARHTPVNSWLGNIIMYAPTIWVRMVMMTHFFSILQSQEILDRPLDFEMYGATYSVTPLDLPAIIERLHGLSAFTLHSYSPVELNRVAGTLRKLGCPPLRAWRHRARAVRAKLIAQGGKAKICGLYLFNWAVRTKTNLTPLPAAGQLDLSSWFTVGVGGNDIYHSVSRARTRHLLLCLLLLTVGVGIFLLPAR

For orientation: EC50 means the midpoint of the concentration-response curve. A word on the Ki: it is a dissociation constant, usually derived from enzyme kinetics or from competition with a known ligand. Lower therefore signals tighter binding. For the molecule `COc1ccc2nc3c(nc2c1)O[C@H]1CN(C(=O)[C@H](C(C)(C)C)NC(=O)O[C@@H]2C[C@H]2CCCCC3)[C@H](C(=O)N[C@]2(C(=O)NS(=O)(=O)C3(C)CC3)C[C@H]2C(F)F)[C@@H]1C` [Example 18, (1aR,5S,8S,9S,10R,22aR)-5-tert-butyl-N-[(1R,2R)-2-(difluoromethyl)-1-{[(1-methylcyclopropyl)sulfonyl]carbamoyl}cyclopropyl]-14-methoxy-9-methyl-3,6-dioxo-1,1a,3,4,5,6,9,10,18,19,20,21,22,22a-tetradecahydro-8H-7,10-methanocyclopropa[18,19][1,10 3,6]dioxadiazacyclononadecino[11,12-b]quinoxaline-8-carboxamide], the 50% effective concentration (EC50) was determined as 3.9 nM in [1]; 5 nM in experiment [2]; 2.6 nM in [3]; 2.8 nM in experiment [4]; 70 nM in experiment [5]. In addition, in experiment [6], the inhibition constant Ki is 0.1 nM.

As to `C=C[C@@H]1C[C@]1(NC(=O)[C@@H]1[C@H](C)[C@@H]2CN1C(=O)[C@H](C(C)(C)C)NC(=O)O[C@@H]1C[C@H]1CCCCCc1nc3ccc(OC)cc3nc1O2)C(=O)NS(=O)(=O)C1CC1` [Example 48, (1aR,5S,8S,9S,10R,22aR)-5-tert-butyl-N-{(1R,2S)-1-[(cyclopropylsulfonyl)carbamoyl]-2-ethenylcyclopropyl}-14-methoxy-9-methyl-3,6-dioxo-1,1a,3,4,5,6,9,10,18,19,20,21,22,22a-tetradecahydro-8H-7,10-methanocyclopropa[18,19][1,10,3,6]dioxadiazacyclononadecino[11,12-b]quinoxaline-8-carboxamide], the concentration giving a half-maximal response (EC50) came out at 2 nM in experiment [1]; 9.7 nM in experiment [2]; 1.7 nM in [7]; 13 nM in experiment [8]; 1.8 nM in [3]; 2.2 nM in experiment [4]. Besides, the EC50 in [9] amounted to 1.1 nM; in experiment [5], 73 nM; in experiment [10], 6.5 nM; in [11] it was 4 nM.

With `COc1ccc2nc3c(nc2c1)O[C@H]1CN(C(=O)[C@H](C(C)(C)C)NC(=O)O[C@H]2CC4CC(C4)[C@@H]2CCCCC3)[C@H](C(=O)N[C@]2(C(=O)NS(=O)(=O)C3CC3)C[C@H]2C(F)F)[C@@H]1C` [Example 72, (4aS,8S,11S,12S,13R,25aS)-8-tert-butyl-N-[(1R,2R)-1-[(cyclopropylsulfonyl)carbamoyl]-2-(difluoromethyl)cyclopropyl]-17-methoxy-12-methyl-6,9-dioxo-2,3,4,4a,6,7,8,9,12,13,21,22,23,24,25,25a-hexadecahydro-1H,11H-1,3:10,13-dimethanoquinoxalino[2,3-k][1,10,3,6]benzodioxadiazacyclononadecine-11-carboxamide], the 50% effective concentration (EC50) in experiment [1] turned out to be 365 nM; in experiment [2] it was 740 nM; in experiment [7] (setting [12]), 600 nM; in [8] (setting [13]), 642 nM; in [3], 300 nM; in [4], 383 nM. Moreover, the 50% effective concentration (EC50) in [9] (setting [14]) turned out to be 165 nM; in experiment [5] it was 1820 nM; in experiment [10], 687 nM; in [11], 227 nM.

Consider `CC[C@@H]1[C@@H]2CN(C(=O)[C@H](C(C)(C)C)NC(=O)O[C@]3(C)CCC[C@H]3CCCCCc3nc4ccc(OC)cc4nc3O2)[C@@H]1C(=O)N[C@]1(C(=O)NS(=O)(=O)C2CC2)C[C@H]1C(F)F` [Example 40, (3aR,7S,10S,11S,12R,24aR)-7-tert-butyl-N-[(1R,2R)-1-[(cyclopropylsulfonyl)carbamoyl]-2-(difluoromethyl)cyclopropyl]-11-ethyl-16-methoxy-3a-methyl-5,8-dioxo-1,2,3,3a,5,6,7,8,11,12,20,21,22,23,24,24a-hexadecahydro-10H-9,12-methanocyclopenta[18,19][1,10,3,6]dioxadiazacyclononadecino[11,12-b]quinoxaline-10-carboxamide], for which the EC50 in experiment [1] turned out to be 25 nM; in experiment [2], 48 nM; in [7] (setting [12]) it was 17 nM; in experiment [8] (setting [13]) it was 156 nM; in experiment [3], 22 nM; in [4], 18 nM. Further, the EC50 in experiment [9] (setting [14]) stood at 8.6 nM; in experiment [5], 360 nM; in experiment [10] it was 129 nM; in [11], 74 nM.

Consider `COc1ccc2nc3c(nc2c1)O[C@H]1CN(C(=O)[C@H](C(C)(C)C)NC(=O)O[C@@H]2C[C@@H]4C[C@@H]4[C@H]2CCCCC3)[C@H](C(=O)N[C@]2(C(=O)NS(=O)(=O)C3(C)CC3)C[C@H]2CC(F)F)[C@@H]1C` [Example 58, (1aS,2aR,6S,9S,10S,11R,23aR,23bS)-6-tert-butyl-N-[(1R,2S)-2-(2,2-difluoroethyl)-1-{[(1-methylcyclopropyl)sulfonyl]carbamoyl}cyclopropyl]-15-methoxy-10-methyl-4,7-dioxo-1a,2,2a,4,5,6,7,10,11,19,20,21,22,23,23a,23b-hexadecahydro-1H,9H-8,11-methanocyclopropa[4′,5′]cyclopenta[1′,2′:18,19][1,10,3,6]dioxadiazacyclononadecino[11,12-b]quinoxaline-9-carboxamide], for which the EC50 in [1] worked out at 12 nM; in experiment [2] it was 12 nM; in [7] it was 12 nM; in experiment [8], 38 nM; in experiment [3], 9.7 nM; in experiment [4], 12 nM. Besides, the EC50 in experiment [9] is 14 nM; in [5], 134 nM; in [10] it was 23 nM; in experiment [11], 18 nM.

Turning to `CC[C@@H]1[C@@H]2CN(C(=O)[C@H](C(C)(C)C)NC(=O)O[C@]3(C)CCC[C@H]3CCCCCc3nc4ccc(OC)cc4nc3O2)[C@@H]1C(=O)N[C@]1(C(=O)NS(=O)(=O)C2(C)CC2)C[C@H]1CCF` [Example 52, (3aR,7S,10S,11S,12R,24aR)-7-tert-butyl-11-ethyl-N-[(1R,2S)-2-(2-fluoroethyl)-1-{[(1-methylcyclopropyl)sulfonyl]carbamoyl}cyclopropyl]-16-methoxy-3a-methyl-5,8-dioxo-1,2,3,3a,5,6,7,8,11,12,20,21,22,23,24,24a-hexadecahydro-10H-9,12-methanocyclopenta[18,19][1,10,3,6]dioxadiazacyclononadecino[11,12-b]quinoxaline-10-carboxamide], the 50% effective concentration (EC50) was determined as 195 nM in experiment [1]; 380 nM in [2]; 150 nM in [7] (setting [12]); 538 nM in [8] (setting [13]); 245 nM in [3]; 161 nM in experiment [4]. For the same molecule, the concentration giving a half-maximal response (EC50) was 161 nM in experiment [9] (setting [14]), 2310 nM in experiment [5], 887 nM in experiment [10] and 516 nM in [11].

Values taken from patent US10335409B2 (priority 2012, dated 2019).
